Our source for the inhibition and IC50 values is PMC6300282, “Sulphamethazine derivatives as immunomodulating agents: New therapeutic strategies for inflammatory diseases” (PLoS ONE, 2018).

In data set [1] the test system is Escherichia coli (ATCC 12022). The data set can be described thus: Microplate Alamar Blue Assay, Escherichia coli. In kind it is cell-based. The protocol: (§1) The anti-bacterial activity of synthesized compound were evaluated by the Microplate Alamar Blue Assay. Staphylococcus aureus (ATCC 25923), Pseudomonas aeruginosa(POA 286), Salmonella typhi (ATCC 14028), Bacillus subtilis ATCC 6633) and Escherichia coli (ATCC 12022) were used in this study as a standard bacterial strains and they were obtained from microbial bank of PCMD, International Center for Chemical and Biological Sciences, University of Karachi, Karachi-75270, Pakistan. The bacterial colonies grown in Trypton Soya Agar (TSA) (Oxoid Limited, UK) were inoculated in Mueller Hinton Broth (MHB) (Oxoid Limited, UK) and incubated overnight at 37 °C. Fully grown bacterial cultures were then diluted to adjust with 0.5 McFarland Turbidity Index (equivalent to 1.5 × 10^8 CFU/mL). Stock solutions (4 mg/mL) of different test compounds were prepared in DMSO and 10μL each of these stock solutions were placed in well of flat bottom, polystyrene, sterile 96-wells plate except the positive control wells (media + bacteria). This gives 200μg/mL concentrations of compounds in final 200 μL solution. Each compound was run in triplicates. Finally, bacterial suspension (5 x 10^6 CFU/mL) was added in each well. Plates were sealed by parafilm and incubated at 37 °C for 18–22 hrs. Next day, 20 μL of 0.02% resazurin sodium salt dye (Chem-Impex-Int’LInc) was added in each well and incubated in shaking incubator at 80 rpm, 37 °C for 2–3 hrs. The color change from blue to reddish pink indicates the growth of bacteria. For quantitative analysis, plates were read at 570 nm and 600 nm in Multiskan GOmicroplate spectrophotometer, (Thermo Scientific, USA). The % inhibition of bacterial growth was calculated using below mentioned formula.
(§2) For the calculation of the % difference in reduction between treated and control cells in cytotoxicity/proliferation assays: =(εOX)λ2Aλ1-(εOX)λ1Aλ2oftestagent/(εOX)λ2A°λ1-(εOX)λ1A°λ2ofpositivegrowthcontrol×100
(Alamar Blue is a resazurin reagent that responds to reducing activity.)

Data set [2] has as its system Bacillus subtilis (ATCC 6633). The data set can be described thus: Microplate Alamar Blue Assay, Bacillus subtilis. In kind it is cell-based. The protocol:
as §1, §2

The test system of data set [3] is Staphylococcus aureus (ATCC 25923). The data set can be described thus: Microplate Alamar Blue Assay, Staphylococcus aureus. The settings on record: Staphylococcus aureus. In kind it is cell-based. The protocol: as §1, §2
The next data set can be described thus: MTT cytotoxicity assay. In kind it is cell-based, mouse. The settings on record: mouse; MTT, 48 hours; read-out: Cytotoxicity NIH-3T3 cell line (IC50). The method, then:
The cytotoxicity was recorded as concentration causing 50% growth inhibition (IC50).
For orientation: Tetrazolium assays rely on reduction of a dye to a coloured formazan, in cell work by metabolically active cells.

Data set [4] concerns Pseudomonas aeruginosa (POA 286). The data set can be described thus: Microplate Alamar Blue Assay, Pseudomonas aeruginosa. Type of data set: cell-based. The settings on record: Pseudomonas aeruginosa, read-out: Percentage (%) Inhibition, Pseudomonas aerugenosa. The protocol:
as §1, §2

In data set [5] the test system is Salmonella typhi (ATCC 14028). The data set can be described thus: Microplate Alamar Blue Assay, Salmonella typhi. In kind it is cell-based. The settings on record: Salmonella enterica; 200 μg/mL; NI = No inhibition; read-out: Percentage (%) Inhibition, Slamonella typhi. The protocol: as §1, §2
[6] abbreviates: ATCC12022, 200 μg/mL, NI = No inhibition, read-out: Percentage (%) Inhibition, Escherichia coli.
Where [7] appears, read: ATCC6633, 200 μg/mL, NI = No inhibition, read-out: Percentage (%) Inhibition, Bacillus subtilis.
The mark [8] stands for this setting: ATCC25923, 200 μg/mL, NI = No inhibition, read-out: Percentage (%) Inhibition, Staphylococcus aureus.

Read-outs that look alike come from different tables or passages of the source.

`Cc1cc(C)nc(NS(=O)(=O)c2ccc(NC(=O)c3cc(Cl)ccc3Cl)cc2)n1` [Compound 23, 2,5-dichloro-N-(4-(N-(4,6-dimethylpyrimidin-2-yl)sulfamoyl)phenyl)benzamide]: the inhibition at 200 µg/mL is less than 0% in data set [1] (setting [6]); less than 0% in data set [2] (setting [7]); 5.76% in data set [3] (setting [8]); 1.54% in data set [4] (200 μg/mL, NI = No inhibition); less than 0% in data set [5]. In addition, in “MTT cytotoxicity assay”, the IC50 is more than 30 µM.

With `Cc1cc(C)nc(NS(=O)(=O)c2ccc(NC(=O)c3cccc(C(F)(F)F)c3F)cc2)n1` [Compound 14, N-(4-(N-(4,6-dimethylpyrimidin-2-yl)sulfamoyl)phenyl)-2-fluoro-3-(trifluoromethyl)benzamide], the inhibition at 200 µg/mL was less than 0% in data set [1] (setting [6]); less than 0% in data set [2] (setting [7]); 27.4% in data set [3] (setting [8]); 1.04% in data set [4] (200 μg/mL, NI = No inhibition); 25.4% in data set [5]. The IC50 in “MTT cytotoxicity assay” is more than 30 µM.

`Cc1cc(C)nc(NS(=O)(=O)c2ccc(NC(=O)c3cc([N+](=O)[O-])cc([N+](=O)[O-])c3)cc2)n1` [Compound 26, N-(4-(N-(4,6-dimethylpyrimidin-2-yl)sulfamoyl)phenyl)-3,5-dinitrobenzamide]: the inhibition at 200 µg/mL is less than 0% in data set [1] (ATCC12022, read-out: Percentage (%) Inhibition, Escherichia coli); less than 0% in data set [2] (ATCC6633, read-out: Percentage (%) Inhibition, Bacillus subtilis); 34.7% in data set [3] (ATCC25923, read-out: Percentage (%) Inhibition, Staphylococcus aureus); less than 0% in data set [4]; less than 0% in data set [5]. Moreover, in the data set “MTT cytotoxicity assay”, the IC50 at 48 h is more than 30 µM.

As for `Cc1cccc(C(=O)Nc2ccc(S(=O)(=O)Nc3nc(C)cc(C)n3)cc2)c1` [Compound 36, N-(4-(N-(4,6-dimethylpyrimidin-2-yl)sulfamoyl)phenyl)-3-methylbenzamide], the inhibition at 200 µg/mL is less than 0% in data set [1] (setting [6]); less than 0% in data set [2] (setting [7]); less than 0% in data set [3] (setting [8]); 20.5% in data set [4] (200 μg/mL, NI = No inhibition); less than 0% in data set [5]. Also, the IC50 in the data set “MTT cytotoxicity assay” is more than 30 µM.

With `Cc1cc(C)nc(NS(=O)(=O)c2ccc(NC(=O)c3ccc(Br)cc3)cc2)n1` [Compound 29, 4-Bromo-N-(4-(N-(4,6-dimethylpyrimidin-2-yl)sulfamoyl)phenyl)benzamide], the inhibition at 200 µg/mL is less than 0% in data set [1] (setting [6]); less than 0% in data set [2] (setting [7]); 52.3% in data set [3] (setting [8]); 15% in data set [4] (200 μg/mL, NI = No inhibition); 14.1% in data set [5]. Also, the IC50 in the data set “MTT cytotoxicity assay” is more than 30 µM.

As for `Cc1cc(C)nc(NS(=O)(=O)c2ccc(NC(=O)c3cccc(Cl)c3)cc2)n1` [Compound 21, 3-chloro-N-(4-(N-(4,6-dimethylpyrimidin-2-yl)sulfamoyl)phenyl)benzamide], the inhibition at 200 µg/mL in data set [1] (setting [6]) was less than 0%; in data set [2] (setting [7]), less than 0%; in data set [3] (setting [8]), 54.6%; in data set [4] (200 μg/mL, NI = No inhibition), 28%; in data set [5], 14.6%. The 50% inhibitory concentration (IC50) in the data set “MTT cytotoxicity assay” was more than 30 µM.

For `Cc1cc(C)nc(NS(=O)(=O)c2ccc(NC(=O)c3cccc(F)c3)cc2)n1` [Compound 16, N-(4-(N-(4,6-dimethylpyrimidin-2-yl)sulfamoyl)phenyl)-3-fluorobenzamide], the inhibition at 200 µg/mL in data set [1] (setting [6]) was less than 0%; in data set [2] (setting [7]), less than 0%; in data set [3] (setting [8]), 47.2%; in data set [4] (200 μg/mL, NI = No inhibition) it was less than 0%; in data set [5], 19.4%. Besides, the IC50 in the data set “MTT cytotoxicity assay” is more than 30 µM.

Turning to `Cc1cc(C)nc(NS(=O)(=O)c2ccc(NC(=O)c3ccc(C(F)(F)F)cc3)cc2)n1` [Compound 19, N-(4-(N-(4,6-dimethylpyrimidin-2-yl)sulfamoyl)phenyl)-4-(trifluoromethyl)benzamide], the inhibition at 200 µg/mL is less than 0% in data set [1] (setting [6]); less than 0% in data set [2] (setting [7]); 49.4% in data set [3] (setting [8]); 2.37% in data set [4] (200 μg/mL, NI = No inhibition); 0.99% in data set [5]. The IC50 in the data set “MTT cytotoxicity assay” is more than 30 µM.

On to `COc1cc(OC)cc(C(=O)Nc2ccc(S(=O)(=O)Nc3nc(C)cc(C)n3)cc2)c1` [Compound 33, N-(4-(N-(4,6-dimethylpyrimidin-2-yl)sulfamoyl)phenyl)-3,5-dimethoxybenzamide], for which the inhibition at 200 µg/mL was less than 0% in data set [1] (setting [6]); less than 0% in data set [2] (setting [7]); 31.3% in data set [3] (setting [8]); less than 0% in data set [4] (200 μg/mL, NI = No inhibition); less than 0% in data set [5]. Moreover, the IC50 in the data set “MTT cytotoxicity assay” was more than 30 µM.

Consider `Cc1cc(C)nc(NS(=O)(=O)c2ccc(NC(=O)c3ccc(Cl)cc3)cc2)n1` [Compound 22, 4-chloro-N-(4-(N-(4,6-dimethylpyrimidin-2-yl)sulfamoyl)phenyl)benzamide], for which the inhibition at 200 µg/mL in data set [1] (setting [6]) was less than 0%; in data set [2] (setting [7]), less than 0%; in data set [3] (setting [8]), 44.3%; in data set [4] (200 μg/mL, NI = No inhibition) it was 9.78%; in data set [5], 11.6%. Further, in the data set “MTT cytotoxicity assay”, the IC50 is more than 30 µM.

Turning to `CC1COc2c(N3CCN(C)CC3)c(F)cc3c(=O)c(C(=O)O)cn1c23` (stereo not shown) [Ofloxacin, reference compound], the inhibition at 200 µg/mL amounted to 94.4% in data set [1] (setting [6]); 93.8% in data set [2] (setting [7]); 94.1% in data set [3] (setting [8]); 94.1% in data set [4] (200 μg/mL, NI = No inhibition); 89.8% in data set [5].

As to `Cc1cc(C)nc(NS(=O)(=O)c2ccc(NC(=O)c3ccc(F)c(F)c3)cc2)n1` [Compound 18, N-(4-(N-(4,6-dimethylpyrimidin-2-yl)sulfamoyl)phenyl)-3,4-difluorobenzamide], the inhibition at 200 µg/mL in data set [1] (setting [6]) is less than 0%; in data set [2] (setting [7]), less than 0%; in data set [3] (setting [8]), 49.7%; in data set [4] (200 μg/mL, NI = No inhibition), less than 0%; in data set [5] it was 22.5%. Further, the IC50 in “MTT cytotoxicity assay” is more than 30 µM.

`Cc1cc(C)nc(NS(=O)(=O)c2ccc(NC(=O)c3ccccc3)cc2)n1` [Compound 39, N-(4-(N-(4,6-dimethylpyrimidin-2-yl)sulfamoyl)phenyl)benzamide]: the inhibition at 200 µg/mL in data set [1] (setting [6]) was 1.84%; in data set [2] (setting [7]), less than 0%; in data set [3] (setting [8]), 41.1%; in data set [4] (200 μg/mL, NI = No inhibition), less than 0%; in data set [5] it was 12.5%. Moreover, in “MTT cytotoxicity assay”, the IC50 was more than 30 µM.

With `Cc1cc(C)nc(NS(=O)(=O)c2ccc(NC(=O)c3ccccc3Br)cc2)n1` [Compound 28, 2-Bromo-N-(4-(N-(4,6-dimethylpyrimidin-2-yl)sulfamoyl)phenyl)benzamide], the inhibition at 200 µg/mL is 4.65% in data set [1] (setting [6]); less than 0% in data set [2] (setting [7]); 58.5% in data set [3] (setting [8]); 3.99% in data set [4] (200 μg/mL, NI = No inhibition); 11.1% in data set [5]. In “MTT cytotoxicity assay”, the IC50 is more than 30 µM.

With `Cc1cc(C)nc(NS(=O)(=O)c2ccc(NC(=O)c3ccccc3F)cc2)n1` [Compound 17, N-(4-(N-(4,6-dimethylpyrimidin-2-yl)sulfamoyl)phenyl)-2-fluorobenzamide], the inhibition at 200 µg/mL in data set [1] (setting [6]) is less than 0%; in data set [2] (setting [7]) it was less than 0%; in data set [3] (setting [8]), 24.3%; in data set [4] (200 μg/mL, NI = No inhibition) it was less than 0%. In addition, in the data set “MTT cytotoxicity assay”, the IC50 was more than 30 µM.

Usually inhibition stands for the drop in the measured response relative to a control, in per cent. Broadly, the IC50 is the concentration that gives 50% inhibition.
